Experiments:
POROL (common purslane) = test: Pre-emergence herbicidal activity, warm season; format: in vivo, Portulaca oleracea; details: GR80 = lowest tested rate (300, 100, 30, 10 g/ha) with 80% or greater inhibition; approx. 14 days after treating; 30/21° C.
Summary of the method: (§1)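 GR80 values derive from percent inhibition relative to untreated plants, read roughly 14 days after sowing and pre-emergence soil-surface treatment (compound in 50:50 acetone/water; rates typically 10, 30, 100, 300 g/ha). Warm-season weeds grew at 30/21° C day/night, cool-season ones at 18/13° C; an asterisk marks activity without reaching 80% at the highest rate.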

SINAR (wild mustard) = test: Pre-emergence herbicidal activity, cool season; format: in vivo, Sinapis arvensis; details: lowest tested rate with 80% or greater inhibition; rates 300, 100, 30, 10 g/ha; about 14 days
Summary of the method: as §1

ALOMY (blackgrass) = test: Pre-emergence herbicidal activity, cool season; format: in vivo, Alopecurus myosuroides; details: GR80 = lowest tested rate (300, 100, 30, 10 g/ha) with 80% or greater inhibition; approx. 14 days after treating; 18/13° C.
Summary of the method: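 GR80 values, pre-emergence, soil applied at 300, 100, 30, 10 g/ha. Warm regime 30/21 °C: PANMI, DIGSA. Cool regime 18/13 °C: ALOMY, POLCO. Rating ~14 d, % inhibition vs untreated.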

AMARE (redroot pigweed) = test: Pre-plant incorporated (PPI) herbicidal activity, warm season; format: in vivo, Amaranthus retroflexus; details: for inhibition at 10 g/ha / inhibition at 30 g/ha / inhibition at 100 g/ha / inhibition at 300 g/ha / inhibition at 900 g/ha: Amaranthus retroflexus, read-out: Percent inhibition AMARE; for inhibition at 10 g/ha / inhibition at 30 g/ha / inhibition at 100 g/ha / inhibition at 300 g/ha / inhibition at 900 g/ha / Percent inhibition AMARE: PPI application; for PPI activity (GR80) AMARE: pre-plant incorporated, GR80 = lowest tested rate with 80% or greater inhibition, approx. 14 days after treating, 30/21° C.
Experimental: (§2) In another set of tests, the pre-plant incorporated (PPI) activity of compounds of this invention was evaluated on the same species as for the pre-emergence tests described above. In the PPI tests the following procedure, designed to simulate PPI application, was used.
(§3) A pre-prepared topsoil mixture (described above) was placed in a pot and compacted to a depth of 1.0 to 1.25 cm from the top of the pot. Seeds of each of several monocotyledonous and dicotyledonous annual plant species were placed on top of the soil. A sufficient quantity of soil to cover the seeds and level fill the pot was weighed into an open container. A known amount of the test compound was dissolved or suspended in an organic solvent and applied by spraying to this cover soil. The cover soil was thoroughly mixed to distribute the test compound throughout the cover soil, and was then applied as a cover layer over the seeds. Untreated soil was used as a cover layer for control pots. After treatment the plants were placed in a greenhouse where they received 0.64 cm of overhead irrigation. All subsequent watering consisted of a light overhead mist and/or subirrigation as needed for germination and growth. Tables 9 and 10 below relate to warm season plant species which were placed after pre-emergence treatment in a greenhouse with a 30/21° C. day/night temperature regime. Tables 11 and 12 below relates to cool season plant species placed after pre-emergence treatment in a greenhouse or growth chamber with an 18/13° C. day/night temperature regime. Only the compounds of Examples 1, 6, 8, 11, 13 and 15-20 were included in PPI tests.
(§4) Approximately 14 days after planting and treating, the plants were observed and herbicidal efficacy recorded as percent inhibition by comparison with untreated plants.

[1] = tested on: SORHA (johnsongrass (seedling)); test: as above; format: in vivo, Sorghum halepense; details: for inhibition at 10 g/ha / inhibition at 30 g/ha / inhibition at 100 g/ha / inhibition at 300 g/ha / inhibition at 900 g/ha: Sorghum halepense, read-out: Percent inhibition SORHA; for inhibition at 10 g/ha / inhibition at 30 g/ha / inhibition at 100 g/ha / inhibition at 300 g/ha / inhibition at 900 g/ha / Percent inhibition SORHA: PPI application; for PPI activity GR80, SORHA: pre-plant incorporated, lowest tested rate with 80% or greater inhibition, about 14 days
Experimental: as §2, §3, §4

PANDI (fall panicum) = test: as above; format: in vivo, Panicum dichotomiflorum; details: for PPI activity GR80, PANDI: pre-plant incorporated, lowest tested rate with 80% or greater inhibition, about 14 days; for Percent inhibition PANDI: PPI application
Experimental: as §2, §3, §4

POAAN (annual bluegrass) = test: Pre-plant incorporated (PPI) herbicidal activity, cool season; format: in vivo, Poa annua; details: weed, PPI application; for inhibition at 10 g/ha / inhibition at 30 g/ha / inhibition at 100 g/ha / inhibition at 300 g/ha / inhibition at 900 g/ha: Poa annua, read-out: Percent inhibition POAAN
Experimental: as §2, §3, §4

AVEFA (wild oat) = test: Post-emergence herbicidal activity, cool season; format: in vivo, Avena fatua; details: abraded plants sprayed at 300, 100, 30 and 10 g/ha; about 14 days after treatment
Summary of the method: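 Post-emergence foliar spray; plants abraded (garnet 200w, ~850 kPa sandblast) before application. Rates 300/100/30/10 g/ha in 50:50 acetone:water, 3,100 l/ha, 511 kPa. Greenhouse 18/13° C. day/night; % inhibition vs abraded unsprayed controls at ~14 days after treatment, GR80 derived.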

Row | SMILES | Pre-emergence activity (GR80) POROL (POROL (common purslane)) | Pre-emergence activity GR80, SINAR (SINAR (wild mustard)) | Pre-emergence activity (GR80) ALOMY (ALOMY (blackgrass)) | inhibition at 10 g/ha (AMARE (redroot pigweed); 10 g/ha) | inhibition at 30 g/ha (AMARE (redroot pigweed); 30 g/ha) | inhibition at 100 g/ha (AMARE (redroot pigweed); 100 g/ha) | inhibition at 300 g/ha (AMARE (redroot pigweed); 300 g/ha) | inhibition at 900 g/ha (AMARE (redroot pigweed); 900 g/ha) | PPI activity (GR80) AMARE (AMARE (redroot pigweed)) | inhibition at 10 g/ha ([1]; 10 g/ha) | inhibition at 30 g/ha ([1]; 30 g/ha) | inhibition at 100 g/ha ([1]; 100 g/ha) | inhibition at 300 g/ha ([1]; 300 g/ha) | inhibition at 900 g/ha ([1]; 900 g/ha) | PPI activity GR80, SORHA [1] | PPI activity GR80, PANDI (PANDI (fall panicum)) | inhibition at 30 g/ha (POAAN (annual bluegrass); 30 g/ha) | inhibition at 100 g/ha (POAAN (annual bluegrass); 100 g/ha) | inhibition at 300 g/ha (POAAN (annual bluegrass); 300 g/ha) | Post-emergence activity GR80, AVEFA (AVEFA (wild oat)) | also measured
1 | C=CCC(F)(F)S(=O)(=O)c1ncn(C(=O)N(CC)CC)n1 [Example 17, 1-(N,N-diethylcarbamoyl)-3-[(1,1-difluoro-3-butenyl)sulfonyl]-1,2,4-triazole] | 300 g/ha | 100 g/ha | 100 g/ha | 60% | 95% | 100% | 100% | 100% | 10 g/ha | 95% | 60% | 100% | 100% | 100% | 10 g/ha | 300 g/ha | 60% | 70% | 95% | [empty] | inhibition at 10 g/ha (POAAN (annual bluegrass); 10 g/ha): 10%; inhibition at 900 g/ha (POAAN (annual bluegrass); 900 g/ha): 100%
2 | CCN(CC)C(=O)n1cnc(S(=O)(=O)C(F)F)n1 [Example 15, 1-(N,N-diethylcarbamoyl)-3-(difluoromethylsulfonyl)-1,2,4-triazole] | 100 g/ha |  |  | 20% | 100% | 80% | 100% | 100% | 100 g/ha | 40% | 20% | 100% | 100% | 95% | 30 g/ha | 100 g/ha |  |  |  | [empty] | 
3 | C=C(C)CC(F)(F)S(=O)(=O)c1ncn(C(=O)N(CC)CC)n1 [Example 18] | 100 g/ha | 300 g/ha | 300 g/ha | 30% | 100% | 100% | 100% | 100% | 300 g/ha | 100% | 100% | 100% | 100% | 100% | 300 g/ha |  | 50% | 65% | 80% | [empty] | inhibition at 10 g/ha (POAAN (annual bluegrass); 10 g/ha): 20%; inhibition at 900 g/ha (POAAN (annual bluegrass); 900 g/ha): 100%
4 | CCN(CC)C(=O)n1cnc(S(=O)(=O)C(F)(F)Br)n1 [Example 1, 3-(bromodifluoromethylsulfonyl)-1-(N,N-diethylcarbamoyl)-1,2,4-triazole] | 100 g/ha | 100 g/ha | 300 g/ha | 0% | 60% | 80% | 100% | 100% | 30 g/ha | 70% | 50% | 100% | 100% | 100% | 30 g/ha | 100 g/ha | 90% | 99% | 100% | [empty] | inhibition at 900 g/ha (POAAN (annual bluegrass); 900 g/ha): 100%
5 | CCN(CC)C(=O)n1cnc(S(=O)(=O)C(F)(F)C(F)(F)SC)n1 [Example 14] | 300 g/ha | [empty] | 100 g/ha |  |  |  |  |  |  |  |  |  |  |  |  |  |  |  |  | [empty] | 
6 | CCN(CC)C(=O)n1cnc(S(=O)(=O)C(F)(F)SC)n1 [Example 9] | 300 g/ha | 300 g/ha | 300 g/ha |  |  |  |  |  |  |  |  |  |  |  |  |  |  |  |  | [empty] | Percent inhibition AMARE (AMARE (redroot pigweed); 30 g/ha): 90%; Percent inhibition AMARE (AMARE (redroot pigweed); 100 g/ha): 100%; Percent inhibition AMARE (AMARE (redroot pigweed); 300 g/ha): 100%; Percent inhibition AMARE (AMARE (redroot pigweed); 900 g/ha): 100%; Percent inhibition SORHA ([1]; 30 g/ha): 100%; Percent inhibition SORHA ([1]; 100 g/ha): 100%; Percent inhibition SORHA ([1]; 300 g/ha): 100%; Percent inhibition SORHA ([1]; 900 g/ha): 100%; Percent inhibition PANDI (PANDI (fall panicum); 30 g/ha): 100%; Percent inhibition PANDI (PANDI (fall panicum); 100 g/ha): 100%; Percent inhibition PANDI (PANDI (fall panicum); 300 g/ha): 100%; Percent inhibition PANDI (PANDI (fall panicum); 900 g/ha): 100%; Percent inhibition POAAN (POAAN (annual bluegrass); 30 g/ha): 90%; Percent inhibition POAAN (POAAN (annual bluegrass); 100 g/ha): 100%; Percent inhibition POAAN (POAAN (annual bluegrass); 300 g/ha): 100%; Percent inhibition POAAN (POAAN (annual bluegrass); 900 g/ha): 100%
7 | CCN(CC)C(=O)n1cnc(S(=O)(=O)C(F)(F)SCCOC)n1 [Example 13] |  | [empty] | 300 g/ha |  |  |  |  |  | 100 g/ha |  |  |  |  |  | 100 g/ha | 30 g/ha |  |  |  | [empty] | Percent inhibition AMARE (AMARE (redroot pigweed); 10 g/ha): 0%; Percent inhibition AMARE (AMARE (redroot pigweed); 30 g/ha): 90%; Percent inhibition AMARE (AMARE (redroot pigweed); 100 g/ha): 70%; Percent inhibition AMARE (AMARE (redroot pigweed); 300 g/ha): 100%; Percent inhibition AMARE (AMARE (redroot pigweed); 900 g/ha): 100%; Percent inhibition SORHA ([1]; 10 g/ha): 30%; Percent inhibition SORHA ([1]; 30 g/ha): 100%; Percent inhibition SORHA ([1]; 100 g/ha): 90%; Percent inhibition SORHA ([1]; 300 g/ha): 100%; Percent inhibition SORHA ([1]; 900 g/ha): 100%; Percent inhibition PANDI (PANDI (fall panicum); 10 g/ha): 40%; Percent inhibition PANDI (PANDI (fall panicum); 30 g/ha): 100%; Percent inhibition PANDI (PANDI (fall panicum); 100 g/ha): 90%; Percent inhibition PANDI (PANDI (fall panicum); 300 g/ha): 100%; Percent inhibition PANDI (PANDI (fall panicum); 900 g/ha): 100%; Percent inhibition POAAN (POAAN (annual bluegrass); 10 g/ha): 0%; Percent inhibition POAAN (POAAN (annual bluegrass); 30 g/ha): 50%; Percent inhibition POAAN (POAAN (annual bluegrass); 100 g/ha): 90%; Percent inhibition POAAN (POAAN (annual bluegrass); 300 g/ha): 100%; Percent inhibition POAAN (POAAN (annual bluegrass); 900 g/ha): 95%
8 | C=C(Br)CC(F)(F)S(=O)(=O)c1ncn(C(=O)N(CC)CC)n1 [Example 19] | 300 g/ha | 30 g/ha | 100 g/ha | 0% | 20% | 95% | 95% | 100% | 100 g/ha | 60% | 80% | 100% | 100% | 100% | 100 g/ha |  | 0% | 10% | 100% | [empty] | inhibition at 10 g/ha (POAAN (annual bluegrass); 10 g/ha): 0%; inhibition at 900 g/ha (POAAN (annual bluegrass); 900 g/ha): 100%
